For assay [1], the target named is Myosin light chain kinase, smooth muscle (Homo sapiens, UniProt Q15746). Briefly: Selectivity interaction (KinomeScan (DiscoverX)) EUB0001619a MYLK. The following applies: at 1 µM.
For assay [2], the target named is Serine/threonine-protein kinase pim-2 (Homo sapiens, UniProt Q9P1W9). Kind of assay: Selectivity interaction (KinomeScan (DiscoverX)) EUB0000607a PIM2. The note with it: at 10 µM.
Assay [3] addresses Protein-tyrosine kinase 6 (Homo sapiens, UniProt Q13882). The following applies: at 10 µM.
The target of assay [4] is T1, Cytoplasmic tyrosine-protein kinase BMX (Homo sapiens) (UniProt P51813).
T1 sequence (whole entry): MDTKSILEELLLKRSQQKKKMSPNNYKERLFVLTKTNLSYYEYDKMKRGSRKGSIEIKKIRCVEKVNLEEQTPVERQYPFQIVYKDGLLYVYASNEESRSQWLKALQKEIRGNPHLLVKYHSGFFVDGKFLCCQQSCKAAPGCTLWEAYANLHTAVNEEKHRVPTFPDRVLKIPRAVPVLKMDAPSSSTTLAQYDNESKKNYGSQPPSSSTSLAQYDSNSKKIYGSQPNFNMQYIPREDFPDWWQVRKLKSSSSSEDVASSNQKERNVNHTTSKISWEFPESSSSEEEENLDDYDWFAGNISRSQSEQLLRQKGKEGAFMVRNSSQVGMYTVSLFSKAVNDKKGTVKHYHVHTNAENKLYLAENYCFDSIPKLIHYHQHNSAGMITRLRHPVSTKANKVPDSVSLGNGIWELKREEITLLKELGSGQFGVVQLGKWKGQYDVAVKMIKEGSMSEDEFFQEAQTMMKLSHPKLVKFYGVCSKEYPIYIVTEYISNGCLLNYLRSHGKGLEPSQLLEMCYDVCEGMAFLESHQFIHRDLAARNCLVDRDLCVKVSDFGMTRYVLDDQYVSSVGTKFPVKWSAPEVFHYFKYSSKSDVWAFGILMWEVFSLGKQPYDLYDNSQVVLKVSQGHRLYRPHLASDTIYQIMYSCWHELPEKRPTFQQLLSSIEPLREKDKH
The note with it: at 10 µM.

The target of assay [5] is T2, Serine/threonine-protein kinase Nek1 (Homo sapiens) (UniProt Q96PY6).
T2 sequence (whole entry): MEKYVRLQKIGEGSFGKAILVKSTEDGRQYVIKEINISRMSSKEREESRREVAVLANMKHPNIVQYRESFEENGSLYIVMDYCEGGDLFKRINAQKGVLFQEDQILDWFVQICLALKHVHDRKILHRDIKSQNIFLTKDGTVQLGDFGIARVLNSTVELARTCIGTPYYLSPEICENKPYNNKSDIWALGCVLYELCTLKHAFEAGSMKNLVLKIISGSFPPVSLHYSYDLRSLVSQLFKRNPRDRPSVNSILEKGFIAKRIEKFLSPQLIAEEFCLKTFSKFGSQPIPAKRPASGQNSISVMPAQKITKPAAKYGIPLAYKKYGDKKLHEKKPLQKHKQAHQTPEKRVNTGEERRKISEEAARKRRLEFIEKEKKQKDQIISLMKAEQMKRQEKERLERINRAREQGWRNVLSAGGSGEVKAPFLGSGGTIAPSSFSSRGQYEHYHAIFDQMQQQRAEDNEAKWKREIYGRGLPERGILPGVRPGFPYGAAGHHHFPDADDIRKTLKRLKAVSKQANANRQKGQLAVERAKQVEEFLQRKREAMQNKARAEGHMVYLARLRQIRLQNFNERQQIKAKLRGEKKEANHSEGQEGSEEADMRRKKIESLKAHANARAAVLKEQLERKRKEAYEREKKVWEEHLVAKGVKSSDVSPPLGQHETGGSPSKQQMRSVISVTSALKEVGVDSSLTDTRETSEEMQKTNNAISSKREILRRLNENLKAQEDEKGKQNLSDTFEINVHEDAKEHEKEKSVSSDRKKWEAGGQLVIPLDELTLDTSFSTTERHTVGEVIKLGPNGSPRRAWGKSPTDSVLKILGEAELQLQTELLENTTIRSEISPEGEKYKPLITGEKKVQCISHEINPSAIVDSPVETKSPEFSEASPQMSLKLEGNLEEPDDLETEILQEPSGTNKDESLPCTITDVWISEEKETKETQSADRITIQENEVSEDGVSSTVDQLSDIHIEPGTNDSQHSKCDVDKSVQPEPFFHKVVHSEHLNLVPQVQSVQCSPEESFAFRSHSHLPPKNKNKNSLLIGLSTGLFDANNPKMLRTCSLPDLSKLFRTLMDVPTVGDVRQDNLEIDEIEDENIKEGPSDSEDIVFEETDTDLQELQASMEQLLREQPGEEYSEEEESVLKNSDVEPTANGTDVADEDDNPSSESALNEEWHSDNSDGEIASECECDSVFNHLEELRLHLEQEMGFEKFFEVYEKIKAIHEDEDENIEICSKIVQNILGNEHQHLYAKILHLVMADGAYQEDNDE
Kind of assay: Selectivity interaction (ActivX KiNativ screen (kinase selectivity in THP-1 cell lysates)) EUB0000639a NEK1. It counts as subcellular. The following applies: lysate.

For assay [6], the target named is Serine/threonine-protein kinase 24 (Homo sapiens) (UniProt Q9Y6E0). Briefly: Selectivity interaction (ActivX KiNativ screen (kinase selectivity in THP-1 cell lysates)) EUB0000639a STK24. The following applies: lysate. In kind it is subcellular.
Chain of Serine/threonine-protein kinase 24 (Homo sapiens) (Q9Y6E0 whole entry, looked up): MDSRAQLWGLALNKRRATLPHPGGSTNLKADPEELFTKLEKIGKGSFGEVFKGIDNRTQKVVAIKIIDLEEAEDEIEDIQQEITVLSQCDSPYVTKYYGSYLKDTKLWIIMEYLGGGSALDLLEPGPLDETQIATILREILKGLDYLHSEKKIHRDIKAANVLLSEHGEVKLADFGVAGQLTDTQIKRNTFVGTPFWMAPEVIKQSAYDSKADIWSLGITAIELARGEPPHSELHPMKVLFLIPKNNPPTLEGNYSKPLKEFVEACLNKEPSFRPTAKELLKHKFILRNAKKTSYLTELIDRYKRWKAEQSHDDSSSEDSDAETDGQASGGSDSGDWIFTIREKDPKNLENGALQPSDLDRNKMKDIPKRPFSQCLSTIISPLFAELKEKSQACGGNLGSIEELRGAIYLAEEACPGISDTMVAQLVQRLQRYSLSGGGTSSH
Assay [7] deals with Homeodomain-interacting protein kinase 1 (Homo sapiens, UniProt Q86Z02). Briefly: Selectivity interaction (KinomeScan (DiscoverX)) EUB0000045b HIPK1.
Chain of Homeodomain-interacting protein kinase 1 (Q86Z02 whole entry, looked up): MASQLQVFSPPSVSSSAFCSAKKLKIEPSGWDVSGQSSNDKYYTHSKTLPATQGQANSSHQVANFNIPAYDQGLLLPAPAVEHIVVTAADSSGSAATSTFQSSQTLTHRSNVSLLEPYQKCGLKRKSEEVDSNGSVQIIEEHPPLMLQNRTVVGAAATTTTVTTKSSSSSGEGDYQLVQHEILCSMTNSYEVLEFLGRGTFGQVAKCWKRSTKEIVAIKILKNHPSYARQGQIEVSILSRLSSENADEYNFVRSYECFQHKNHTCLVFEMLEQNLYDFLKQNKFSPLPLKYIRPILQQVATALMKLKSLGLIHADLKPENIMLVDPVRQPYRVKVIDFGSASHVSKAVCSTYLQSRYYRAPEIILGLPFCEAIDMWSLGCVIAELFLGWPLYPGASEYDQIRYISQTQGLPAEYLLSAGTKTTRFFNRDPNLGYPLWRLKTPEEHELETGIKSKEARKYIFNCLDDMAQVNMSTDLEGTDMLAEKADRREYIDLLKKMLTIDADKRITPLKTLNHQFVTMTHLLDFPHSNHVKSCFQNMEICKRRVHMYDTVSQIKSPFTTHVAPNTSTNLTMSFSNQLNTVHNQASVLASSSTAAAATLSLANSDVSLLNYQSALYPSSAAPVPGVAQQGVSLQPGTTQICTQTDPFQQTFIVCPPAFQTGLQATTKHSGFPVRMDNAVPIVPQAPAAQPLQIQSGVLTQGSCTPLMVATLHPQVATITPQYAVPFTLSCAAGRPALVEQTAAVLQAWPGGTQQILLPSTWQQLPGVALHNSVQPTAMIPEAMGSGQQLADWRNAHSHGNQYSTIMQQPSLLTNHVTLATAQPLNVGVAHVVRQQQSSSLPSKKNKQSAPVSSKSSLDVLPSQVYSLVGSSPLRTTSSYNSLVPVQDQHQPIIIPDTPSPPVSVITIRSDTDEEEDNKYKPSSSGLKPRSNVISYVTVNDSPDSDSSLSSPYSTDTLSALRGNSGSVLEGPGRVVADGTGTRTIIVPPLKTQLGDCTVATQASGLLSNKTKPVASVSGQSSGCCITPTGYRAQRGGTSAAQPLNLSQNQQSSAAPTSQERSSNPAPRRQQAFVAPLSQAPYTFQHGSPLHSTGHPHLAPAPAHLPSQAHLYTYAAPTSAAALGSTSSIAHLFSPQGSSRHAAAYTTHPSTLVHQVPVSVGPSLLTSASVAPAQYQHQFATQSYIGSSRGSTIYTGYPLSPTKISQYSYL
In assay [8] the target is Fibroblast growth factor receptor 1 (Homo sapiens, UniProt P11362). Briefly: Selectivity interaction (KinomeScan (DiscoverX)) EUB0000045b FGFR1.
Chain of Fibroblast growth factor receptor 1 (P11362 22-822 limits assumed): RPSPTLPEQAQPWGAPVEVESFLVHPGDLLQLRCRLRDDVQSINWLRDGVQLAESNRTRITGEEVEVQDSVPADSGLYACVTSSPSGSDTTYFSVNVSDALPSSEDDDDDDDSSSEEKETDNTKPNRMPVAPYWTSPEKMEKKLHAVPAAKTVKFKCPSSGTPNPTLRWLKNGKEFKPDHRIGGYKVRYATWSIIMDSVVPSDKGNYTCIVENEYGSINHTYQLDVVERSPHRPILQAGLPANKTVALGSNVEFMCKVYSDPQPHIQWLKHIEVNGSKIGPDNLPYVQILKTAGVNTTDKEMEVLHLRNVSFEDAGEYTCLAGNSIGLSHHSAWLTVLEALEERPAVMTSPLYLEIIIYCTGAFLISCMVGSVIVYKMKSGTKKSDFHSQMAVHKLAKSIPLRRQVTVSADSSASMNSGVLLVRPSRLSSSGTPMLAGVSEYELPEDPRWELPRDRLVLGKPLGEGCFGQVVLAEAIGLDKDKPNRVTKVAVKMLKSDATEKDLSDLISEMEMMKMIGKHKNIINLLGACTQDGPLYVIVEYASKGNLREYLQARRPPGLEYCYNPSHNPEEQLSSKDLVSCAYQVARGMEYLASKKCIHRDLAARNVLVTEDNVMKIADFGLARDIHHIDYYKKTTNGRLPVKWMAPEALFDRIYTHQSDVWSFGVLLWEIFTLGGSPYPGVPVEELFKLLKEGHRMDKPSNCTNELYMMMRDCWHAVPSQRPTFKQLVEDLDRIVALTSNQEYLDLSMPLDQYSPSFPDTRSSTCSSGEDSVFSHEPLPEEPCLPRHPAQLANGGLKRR
Assay [9] concerns the target Mitogen-activated protein kinase kinase kinase 11 (Homo sapiens) (UniProt Q16584). Kind of assay: Selectivity interaction (KinomeScan (DiscoverX)) EUB0000618a MAP3K11. The note with it: at 10 µM.
The target of assay [10] is Polycomb protein SUZ12 (Homo sapiens) (UniProt Q15022). Briefly: Selectivity interaction (Methyltransferase screen (radiometric assays, panel of 8 PRMTs, 21 protein lysine methyltransferases, 3 DNA methyltransferases, and one RNA methyltransferase)) EUB0000272b SUZ12.
Chain of Polycomb protein SUZ12 (Homo sapiens) (Q15022 whole entry): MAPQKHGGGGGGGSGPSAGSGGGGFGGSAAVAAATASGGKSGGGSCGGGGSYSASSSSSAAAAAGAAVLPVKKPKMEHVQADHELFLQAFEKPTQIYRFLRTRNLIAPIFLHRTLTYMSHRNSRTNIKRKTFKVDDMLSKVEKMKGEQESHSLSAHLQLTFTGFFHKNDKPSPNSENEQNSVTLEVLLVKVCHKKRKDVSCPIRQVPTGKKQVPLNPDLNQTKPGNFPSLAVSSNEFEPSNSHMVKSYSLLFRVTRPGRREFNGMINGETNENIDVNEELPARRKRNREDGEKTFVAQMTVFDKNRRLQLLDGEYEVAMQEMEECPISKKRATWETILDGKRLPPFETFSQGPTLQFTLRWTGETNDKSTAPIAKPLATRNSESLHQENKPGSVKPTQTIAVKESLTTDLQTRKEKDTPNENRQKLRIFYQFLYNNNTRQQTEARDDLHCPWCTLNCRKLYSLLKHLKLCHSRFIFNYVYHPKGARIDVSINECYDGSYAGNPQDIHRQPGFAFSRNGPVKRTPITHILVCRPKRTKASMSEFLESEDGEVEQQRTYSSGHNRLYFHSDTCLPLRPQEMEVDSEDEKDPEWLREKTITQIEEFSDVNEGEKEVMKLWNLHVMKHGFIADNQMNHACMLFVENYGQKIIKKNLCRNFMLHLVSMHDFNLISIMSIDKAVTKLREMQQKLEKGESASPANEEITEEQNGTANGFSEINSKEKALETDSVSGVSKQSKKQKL
Assay [11] addresses Serine/threonine-protein kinase 38 (Homo sapiens) (UniProt Q15208). Kind of assay: Selectivity interaction (Kinase panel (KiNativ target engagement assay in Jurkat cells)) EUB0001635a STK38. It counts as cell-based. The following applies: Selectivity number of off-targets 0.0, Selectivity number of targets 233.0, Source Knowledge https://www.sciencedirect.com/science/article/pii/S2451945619300674?via%3Dihub, at 1 µM.

Each structure is given as a SMILES string.

Chain of Serine/threonine-protein kinase 38 (Homo sapiens) (Q15208 2-465 limits assumed): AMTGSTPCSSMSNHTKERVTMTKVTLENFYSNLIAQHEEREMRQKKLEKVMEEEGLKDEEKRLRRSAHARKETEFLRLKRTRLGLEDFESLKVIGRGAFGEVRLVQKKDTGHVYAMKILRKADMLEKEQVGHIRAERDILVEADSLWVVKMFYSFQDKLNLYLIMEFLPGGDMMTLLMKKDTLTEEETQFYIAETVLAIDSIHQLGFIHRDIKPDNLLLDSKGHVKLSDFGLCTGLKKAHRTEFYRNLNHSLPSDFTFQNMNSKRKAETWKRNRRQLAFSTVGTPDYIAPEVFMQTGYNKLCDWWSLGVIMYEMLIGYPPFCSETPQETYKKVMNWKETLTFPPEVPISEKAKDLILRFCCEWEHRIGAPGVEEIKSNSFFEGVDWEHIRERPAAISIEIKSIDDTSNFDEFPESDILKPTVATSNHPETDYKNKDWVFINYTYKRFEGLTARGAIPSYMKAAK
Chain of Serine/threonine-protein kinase pim-2 (Q9P1W9 whole entry, looked up): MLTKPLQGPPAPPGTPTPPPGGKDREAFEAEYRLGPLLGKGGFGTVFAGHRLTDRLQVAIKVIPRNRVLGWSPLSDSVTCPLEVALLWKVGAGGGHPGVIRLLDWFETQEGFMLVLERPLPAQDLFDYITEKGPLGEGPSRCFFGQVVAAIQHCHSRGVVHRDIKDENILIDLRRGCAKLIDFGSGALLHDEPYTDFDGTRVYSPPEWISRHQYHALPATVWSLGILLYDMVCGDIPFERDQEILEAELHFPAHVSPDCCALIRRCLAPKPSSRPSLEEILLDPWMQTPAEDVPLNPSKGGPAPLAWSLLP
Chain of Protein-tyrosine kinase 6 (Q13882 whole entry, looked up): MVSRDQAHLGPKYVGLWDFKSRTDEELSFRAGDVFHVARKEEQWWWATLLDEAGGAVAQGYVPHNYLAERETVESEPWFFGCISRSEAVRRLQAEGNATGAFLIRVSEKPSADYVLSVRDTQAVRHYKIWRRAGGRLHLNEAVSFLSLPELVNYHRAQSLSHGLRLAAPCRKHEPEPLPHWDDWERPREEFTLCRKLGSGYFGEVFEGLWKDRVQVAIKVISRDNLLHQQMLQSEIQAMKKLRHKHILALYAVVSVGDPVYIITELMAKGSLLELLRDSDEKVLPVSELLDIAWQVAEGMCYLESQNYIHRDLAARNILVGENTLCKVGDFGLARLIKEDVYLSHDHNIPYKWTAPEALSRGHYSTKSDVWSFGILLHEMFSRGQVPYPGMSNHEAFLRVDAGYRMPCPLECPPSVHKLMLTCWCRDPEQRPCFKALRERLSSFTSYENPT

In turn, `N#Cc1cccc(-c2c[nH]c3ncnc(N4CCOCC4)c23)c1` had a % of control in assay [1] of 93%.

Compound `CNC(=O)Nc1ccc(-c2nc(N3CC4CCC(C3)O4)c3cnn(C4CCC5(CC4)OCCO5)c3n2)cc1` displayed a % of control in assay [2] of 74%.

Take `Cc1cc([C@@H](C)Nc2ccccc2C(=O)O)c2nc(N3CCOCC3)cc(=O)n2c1` [AZD-6482]: the % of control in assay [3] worked out at 75%; in assay [4] it was 85%.

As to `CC[C@@H]1[C@H](F)C(=O)N[C@@H]1COc1nccc2cc(C(N)=O)c(OC)cc12` [ZIMLOVISERTIB], the % of inhibition is -0.6% in assay [5] (at 0.01 µM); 7% in assay [5] (at 0.04 µM); 14.4% in assay [5] (at 0.2 µM); 4.9% in assay [5] (at 1 µM); -6.3% in assay [5] (at 5 µM); 3.4% in assay [6] (at 0.01 µM). Also, the % of inhibition in [6] (at 0.04 µM) is -19.7%; in assay [6] (at 0.2 µM), -5.9%; in [6] (at 1 µM) it was 6%; in assay [6] (at 5 µM), 5.4%.

For the compound `C=CC(=O)Nc1cc(-n2c(=O)ccc3cnc4ccc(-c5ccc(NS(C)(=O)=O)cc5)cc4c32)ccc1C`, the % of control in assay [7] (at 1 µM) was 100%; in [7] (at 10 µM) it was 56%; in [8] (at 1 µM), 92%; in [8] (at 10 µM) it was 98%.

`O[C@H]1CC[C@H](Nc2ncc3nc(Nc4c(F)cc(F)cc4F)n([C@H]4CCOC4)c3n2)CC1` gave a % of control in assay [9] of 100%.

Consider `Cc1cc(C)cc([C@H]2c3cc(C)ccc3NC(=O)CN2C(=O)c2ccc(Br)s2)c1`, for which the % of activity came out at 102% in assay [10] (at 1 µM) and 97.3% in assay [10] (at 10 µM).

Turning to `C=CC(=O)Nc1ccc(C(=O)Nc2[nH]nc3c2CN(C(=O)N[C@H](CN(C)C)c2ccccc2)C3(C)C)cc1`, the % of engagement in assay [11] stood at 0.3%.

The values are drawn from ChEMBL document CHEMBL5465560, “Selectivity Literature for EUbOPEN Chemogenomic Library” (2024).
